Test results from patent US20080171355A1, “DEVICE FOR TESTING THE EFFECTIVENESS OF DISINFECTANTS ON PROTOZOAN PARASITES” (priority 2006, published 2008).

Test system: Oocysts of Eimeria acervulina
Type: cell-based

**Q.** How did the “Sporulation Rate (%)” value turn out when CC(=O)OO [Peracetic Acid] was run?
**A.** 65.9%
